Measured values published in PMC10002517, “Inhibition of Transglutaminase 2 as a Therapeutic Strategy in Celiac Disease—In Vitro Studies in Intestinal Cells and Duodenal Biopsies” (International Journal of Molecular Sciences, 2023).

Tests used:
[1] = target: T1, TG2 in the intestinal lamina propria (Homo sapiens, UniProt P21980); assay: TG2 activity in cryosections of duodenal biopsies from CD patients (5BP, confocal microscopy); type: biochemical; conditions: 1 h before 5BP, mean ± SD, n = 6 patients
T1 construct: from tissue; host or cells: duodenal biopsies from celiac disease patients (unfixed 400 nm cryosections, lamina propria)
T1 sequence (P21980 1-687): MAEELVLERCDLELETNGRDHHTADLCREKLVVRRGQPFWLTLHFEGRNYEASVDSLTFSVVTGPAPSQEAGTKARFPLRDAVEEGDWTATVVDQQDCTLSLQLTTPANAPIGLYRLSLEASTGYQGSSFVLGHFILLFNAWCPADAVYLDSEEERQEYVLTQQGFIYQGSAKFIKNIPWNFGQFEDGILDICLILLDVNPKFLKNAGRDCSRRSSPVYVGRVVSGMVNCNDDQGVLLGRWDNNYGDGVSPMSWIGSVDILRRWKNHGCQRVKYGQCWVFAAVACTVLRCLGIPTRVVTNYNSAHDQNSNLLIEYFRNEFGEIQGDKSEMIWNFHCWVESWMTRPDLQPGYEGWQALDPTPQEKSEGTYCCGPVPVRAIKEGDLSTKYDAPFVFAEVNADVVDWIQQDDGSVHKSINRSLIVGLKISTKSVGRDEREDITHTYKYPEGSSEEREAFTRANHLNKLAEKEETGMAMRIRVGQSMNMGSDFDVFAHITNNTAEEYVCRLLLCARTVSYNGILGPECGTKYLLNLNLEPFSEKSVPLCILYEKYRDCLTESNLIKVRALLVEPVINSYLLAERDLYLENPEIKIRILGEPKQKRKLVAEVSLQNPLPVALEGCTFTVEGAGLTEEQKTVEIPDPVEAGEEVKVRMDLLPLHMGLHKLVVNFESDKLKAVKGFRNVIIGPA
Description: For immunofluorescence microscopic investigation of transglutaminase activity, only biopsies with minor macroscopic inflammatory signs were used. After endoscopy, biopsies were immediately washed three times in PBS and cryopreserved in polyvinylpyrrolidone sucrose at 4 °C overnight. Biopsies were mounted on specimen holders using Tissue-Tek O.C.T (Sakura Finetek, Staufen im Breisgau, Germany) compound and frozen in liquid nitrogen. For evaluation of transglutaminase activity by the post-embedding procedure, 400 nm cryosections were obtained using a cryo-ultramicrotome (Leica EM UC6, Leica, Wetzlar, Germany) and mounted on class cover slides. After three brief washes with PBS, tissue sections were incubated with the indicated concentrations of the inhibitors for 1 h in tris buffer. Then, the TG2 substrate 5BP was incubated for 1 h at 37 °C in tris buffer containing DTT at the indicated concentration. Slides were washed three times in PBS, fixed in 4% paraformaldehyde (10 min), permeabilized with 0.5% Triton (10 min) and incubated with blocking solution (0.1% cold water fish skin gelatin + 5% BSA + 5% goat serum, 10 min). Afterwards, a rabbit polyclonal antibody directed against human TG2 (Kan5, kindly provided by Dr T. Mothes, Institute of Laboratory Medicine, University Hospital Leipzig, Germany) was applied at 1:200 dilution in blocking solution overnight at 4 °C. After three washing steps (each 5 min) with PBS, Alexa Fluor-555-conjugated secondary antibody (goat-anti-rabbit, 1:200, Thermo Fisher Scientific) and Alexa Fluor-488-conjugated streptavidin (2 µg/mL, Thermo Fisher Scientific) were incubated at room temperature in the dark for 1 h. After three washes with PBS, samples were covered in ProLong Gold antifade mountant (Thermo Fisher Scientific) and sealed with clear nail polish. Sealed slides were stored in the dark at 4 °C until microscopy.
Imaging was done using a confocal laser scanning microscope (TE2000-E, Nikon, Langen, Germany) and a 60× Plan Apo (NA 1.41) immersion oil objective. The detailed acquisition settings and the corresponding macro (Image J [46]) for image processing can be accessed in the Supplementary Materials methods (S1). Five images per patient where quantified. For quantitation, mean fluorescence intensity of TG2 activity (488 nm channel) was normalized to TG2 expression (555 nm channel) within the intestinal lamina propria.

[2] = tested on: Caco-2 cells; assay: Resazurin-based cell viability assay (PrestoBlue HS); set-up: species or system human; conditions: confluent Caco-2 cells, 24 h in medium, n = 3
Description: The cell viability of Caco-2 cells was examined using PrestoBlue HS (A13261, (Thermo Fisher Scientific). In brief, Caco-2 cells (7–8 days after confluency) were incubated with PX-12 or ERW1041 at the indicated concentrations for 24 h in full medium. As a positive control, cells were incubated with 4% PFA for 10 min. After washing with PBS, cells were incubated with PrestoBlue HS diluted 1:10 in culture medium for 2 h at 37 °C. Fluorometric examination was conducted using a Clariostar Plus (no well scan mode, bottom optic measurement, excitation 545 nm, emission 600 nm, fixed gain: 800). Every experiment was performed in duplicates with at least three technical replicates. Normalization was performed against conditions, where cells were not treated with TG2 inhibitors.

[3] = target: T2, extracellular TG2 on Caco-2 cells (Homo sapiens, UniProt P21980); assay: Extracellular TG2 activity on confluent Caco-2 cell monolayers (5BP cross-linking); type: cell-based; conditions: n = 4; for reduction of TG2 activity on the cell surface: IFN-γ-stimulated Caco-2 cells, 5BP 3 h
T2 construct: endogenous in cells; host or cells: Caco-2 (differentiated; IFN-γ-stimulated in the monolayer assay)
T2 sequence (P21980 1-687): T1 sequence (P21980 1-687)
Description: The method was adapted from Yi et al.. To induce TG2 expression, Caco-2 cells were stimulated with IFN-γ 1000 IU/mL for 48 h. Then, cells were washed three times with warm PBS and incubated with the substrate 5BP for 3 h at 37 °C in 50 mM Tris and 1 mM EDTA (pH 7.5). The substances ERW1041, PX-12 and DTT were added to this solution when indicated. After incubation, cells were washed three times with PBS, fixed with 4% paraformaldehyde for 10 min and blocked with 5% BSA in PBS at 4 °C overnight. Then, cells were incubated at room temperature with streptavidin-Alexa488 (Thermo Scientific, 4 µg/mL) in 5% BSA in the dark for 1 h, followed by three washes with PBS. Fluorometric quantitation was conducted using a FLUOstar Optima microplate reader (BMG Labtech, filter settings: excitation 485 nm, emission 525 nm). Manual gain adjustment was performed, setting the well with the most intense signal as 95%. In all experiments, data were background subtracted against a control without 5BP substrate.

[4] = tested on: uptake of P56-88 by Caco-2 cells; assay: Epithelial uptake of P56-88 by Caco-2 cells (confocal microscopy); type: cell-based, human; conditions: confocal microscopy
Description: For microscopic evaluation, Caco-2 cells were seeded on polymer-covered µ-slides (80826, Ibidi) and incubated for 1 h with labeled gliadin peptides in the presence of TG2 inhibitors. After three washes with PBS, cells were fixed with 4% paraformaldehyde. Nuclear staining was performed for 10 min using Hoechst fluorescent stain (1:1000 in PBS). Imaging was done using a confocal laser scanning microscope (TE2000-E, Nikon) and a 60× Plan Apo (NA 1.41) immersion oil objective. Processing of z-stacks, including 3D reconstruction, was performed using ImageJ [46]. For quantitation, z-stack images were taken with the same microscope settings. Using ImageJ, maximum intensity projections were obtained of the z-stack images, and the fluorescence intensity was measured within the whole image.

[5] = 100 µM inhibitor, untreated 0.94 ± 0.26 (ERW1041) or 0.91 ± 0.28 (PX-12)
[6] = up to a concentration of 100 µM
[7] = 1 h incubation with peptide and inhibitor, n = 3

Compound: O=C(NC[C@@H]1CC(Br)=NO1)[C@@H]1CCCN1C(=O)OCc1cnc2ccccc2c1 [ERW1041]
- TG2 activity normalized against TG2 expression in the lamina propria ([1]; 1 µM inhibitor, untreated 0.94 ± 0.26): 0.58 ± 0.27
- TG2 activity normalized against TG2 expression in the lamina propria [1, 5]: 0.31 ± 0.17
- cell viability ([2]; 200 µM and 500 µM): significantly reduced cell viability
- cell viability [2, 6]: did not affect cell viability
- reduction of TG2 activity on the cell surface ([3]; 10 µM): about 32%
- reduction of TG2 activity on the cell surface ([3]; 100 µM): ~70%
- uptake of P56-88 by Caco-2 cells ([4]; 100 µM inhibitor, 1 h): nearly absent
- uptake of P56-88 by Caco-2 cells [4, 7]: reduced the uptake of P56-88 in a dose-dependent manner

Compound: CCC(C)SSc1ncc[nH]1 (stereo not shown) [PX-12, 2-[(1-methylpropyl)dithio]-1H-imidazole]
- TG2 activity normalized against TG2 expression in the lamina propria [1, 5]: 0.44 ± 0.21
- cell viability ([2]; 200 µM and 500 µM): significantly reduced cell viability
- cell viability [2, 6]: did not affect cell viability
- inhibition of TG2 on confluent Caco-2 monolayers ([3]; concentrations between 10 nM and 100 µM): did not observe any significant inhibition of TG2
- uptake of P56-88 by Caco-2 cells [4, 7]: did not affect the uptake of P56-88
